Assay results reported in paper PMC2651799 (Nucleic Acids Research, 2009).

Target: T1, RmtA (Pseudomonas aeruginosa, UniProt Q8GRA1)
T1 sequence (Q8GRA1 1-251): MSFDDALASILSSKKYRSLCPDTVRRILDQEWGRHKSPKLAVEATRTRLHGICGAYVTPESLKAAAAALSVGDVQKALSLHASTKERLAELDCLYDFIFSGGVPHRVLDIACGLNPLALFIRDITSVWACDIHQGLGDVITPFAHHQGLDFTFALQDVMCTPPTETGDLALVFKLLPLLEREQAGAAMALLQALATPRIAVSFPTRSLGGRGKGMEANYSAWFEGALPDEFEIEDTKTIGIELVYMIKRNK
Format: biochemical

SMILES | IC50 [µM]
Nc1ncnc2c1ncn2[C@@H]1O[C@H](C[C@@H](N)CC[C@H](N)C(=O)O)[C@@H](O)[C@H]1O [sinefungin] | 19.95 ± 0.09
Nc1ncnc2c1ncn2[C@@H]1O[C@H](CSCC[C@H](N)C(=O)O)[C@@H](O)[C@H]1O [SAH] | 9.33 ± 0.07
